The record followed here is PMC7496096, “Functional Characterisation of ClpP Mutations Conferring Resistance to Acyldepsipeptide Antibiotics in Firmicutes” (Chembiochem, 2020).

The structures appear in SMILES notation. Values after ≈ are worked out from the molar mass of the structure shown.

One assay has as its system B. subtilis 168. Kind of assay: microbe, parasite or virus in culture. Particulars: broth microdilution, Mueller-Hinton broth (without cation adjustment), CLSI, inoculum 5×10^4 CFU mL^−1; wild type. The assay is classed as cell-based, Bacillus subtilis. The method, then:
(§1) Determination of antibacterial activity: ADEP1 was purified from the culture supernatant of S. hawaiiensis NRRL 15010 as described.4 ADEPs 2, 4, 7, 9 were custom synthesised by EMC Microcollections, Tübingen, or provided by AiCuris, Wuppertal, Germany. The minimal inhibitory concentration (MIC) was determined by broth microdilution in Mueller‐Hinton broth (without cation adjustment) according to the guidelines of the Clinical Laboratory Standards Institute (CLSI).69 The inoculum was set to 5×10^4 CFU mL^−1 to allow some distance to the determined spontaneous resistance frequencies. […] All other ADEPs were used from DMSO stock solutions kept at −20 °C.

A further assay has as its system E. faecium RC1. The format is cell-based, Enterococcus faecium. Particulars: resistant clone of E. faecium L4001; ClpP I29→T, ADEP binding site. The method, then:
as §1
(§2) Screening for ADEP‐resistant mutants and determination of resistance rates: Single colonies of wild‐type strains grown on Mueller‐Hinton agar plates overnight were suspended in sterile saline and a final inoculum of 5×10^6 cells was spread on plates supplemented with different ADEP congeners at 4× and 10× the MIC. For B. subtilis strain 3xclpP, ADEP7‐containing Mueller‐Hinton agar plates were additionally supplemented with 1 mM IPTG. Resistant colonies were counted after 24 h at 37 °C and colonies were randomly chosen for MIC determinations and sequencing. Mutations in the clpP gene of the respective isolated mutants were analysed by amplifying the clpP gene (and upstream promoter region) by PCR and sequencing of the resulting PCR amplicons (LGC genomics). Sequencing data were analysed by using SnapGene software (GSL Biotech).

The next assay relates to E. faecium RC2. The assay is classed as cell-based, Enterococcus faecium. The settings on record: resistant clone of E. faecium L4001; insertion of IS30 family transposase between promotor and start codon, no expression. The method, then: as §1, §2
The subject of the next assay is E. faecium RC3. The assay is classed as cell-based, Enterococcus faecium. The settings on record: resistant clone of E. faecium L4001; ClpP G127→A (equatorial interface). The method, then:
as §1, §2

The next assay deals with S. pneumoniae RC4. The assay is classed as cell-based, Streptococcus pneumoniae. The settings on record: resistant clone of S. pneumoniae G9A; ClpP A94→G (ClpP core; β4). The method, then: as §1, §2

As to `C[C@@H]1C[C@H]2C(=O)OC[C@H](NC(=O)[C@H](Cc3cc(F)cc(F)c3)NC(=O)CCC3CCCCC3)C(=O)N3CCC[C@H]3C(=O)N3CCCC[C@H]3C(=O)N[C@@H](C)C(=O)N2C1` [ADEP2], the MIC against B. subtilis 168 was no more than 0.031 µg/mL; against E. faecium RC1 it was 0.125 µg/mL (≈ 0.156 µM); with E. faecium RC2, greater than 16 µg/mL; against E. faecium RC3, 4 µg/mL (≈ 5.01 µM); against S. pneumoniae RC4 it was 16 µg/mL (≈ 20 µM).
